Here are results for 15 molecules from patent US20250188078A1, “SMALL MOLECULE INHIBITORS OF THE CRL4 UBIQUITIN LIGASE” (Cornell University, priority 2022, published 2025).

Series [1] has as its target CUL4A-DDB1-BPB interaction (Homo sapiens (Human), UniProt Q16531). Briefly: AlphaLISA in vitro binding assay, CUL4A and DDB1-BPB binding. The conditions noted are these: inhibition of CUL4A and DDB1-BPB binding. A digest of the protocol: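 Compound disruption of CUL4A binding to DDB1-BPB measured by AlphaLISA/AlphaScreen bead proximity in 384-well format. IC50 from nonlinear log(inhibitor)-vs-response curve fit.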
A general note: In Alpha technology, singlet oxygen from a donor bead excites a nearby acceptor bead.

For series [2], the system named is CUL4A^high MDA-MB-468 breast cancer cells. As to the kind of experiment: Cell killing in CUL4-high MDA-MB-468 cells (CellTiter Glo). The class given is cell-based. The conditions noted are these: Homo sapiens, 192 h; MDA-MB-468 cells, 8 days treatment; read-out: EC50 CUL4-High Cells (cell killing). On the procedure: EC50 refers to concentration of compound that induces 50% killing of CUL4A^high MDA-MB-468 cells (see Table 1, column 6). CUL4A^high MDA-MB-468 breast cancer cells were seeded in 96 well plates. After 24 hours, cells were treated with DMSO or compounds. Change fresh medium and compounds. After 8 days treatment, cell viability was examined by using CellTiter Glo kit (Promega #7570) following the manufacturer's guidelines (https://www.promega.com/-/media/files/resources/protocols/technicalbulletins/0/celltiter-glo-luminescent-cell-viability-assay protocol.pdf?rev=0d95c232094b41daa06d0c110d1d916f&sc_lang=en, hereby incorporated by reference in its entirety for all purposes). EC50 concentration was calculated by Prism 8 XY analysis nonlinear regression (curve fit-Log(inhibitor) vs response). Lower EC50 indicates high cell killing potential in CUL4^high MDA-MB-468 cells.
(§1) CUL4A^high MDA-MB-468, CUL4^low (T47D), and MCF7 breast cancer cells were seeded in 96 well plates separately. Cells were treated with DMSO, or from 0 to 20 μM compound respectively. Replace with fresh medium and compounds every 48 hours. After 8 days treatment, cell viability was examined by CellTiter Glo kit (Promega #7570). First, transfer the appropriate volume (10 ml for Cat. #G7570) of CellTiter-Glo® Buffer into the amber bottle containing CellTiter-Glo® Substrate to reconstitute the lyophilized enzyme/substrate mixture. This forms the CellTiter-Glo® Reagent. Second, add CellTiter-Glo® Reagent in an equal volume (100 μl per well for 96-well plates) to all wells. Mix contents for 2 minutes on an orbital shaker to induce cell lysis. Incubate at room temperature for 15 minutes to stabilize luminescent signal. Then record luminescence. EC50 concentration was calculated by Prism 8 XY analysis nonlinear regression (curve fit-Log(inhibitor) vs response).
(In general: In ATP-based viability assays light output follows the ATP content of the culture.)

For series [3], the system named is CUL4A^low T47D breast cancer cells. As to the kind of experiment: Cell killing in CUL4-low T47D cells (CellTiter Glo). The class given is cell-based. The note with it: Homo sapiens, 192 h; T47D cells, 8 days treatment; read-out: EC50 CUL4-Low Cells (cell killing). On the procedure:
EC50 indicates compound concentration can cause 50% cell killing in CUL4° ^w T47D cells (see Table 1, column 7). CUL4A^low T47D breast cancer cells were seeded in 96 well plate. […] Change fresh medium and compounds every 48 hours. After 8 days treatment, cell viability was examined by using CellTiter Glo kit (Promega #7570) following the manufacturer's guidelines (https://www.promega.com/-/media/files/resources/protocols/technical-bulletins/0/celltiter-glo-luminescent-cell-viability-assay-protocol.pdf?rev=0d95c232094b41daa06d0c110d1d916f&sc_lang=en, hereby incorporated by reference in its entirety for all purposes). EC50 concentration was calculated by Prism 8 XY analysis nonlinear regression (curve fit-Log(inhibitor) vs response). EC50 indicates cell killing potential in CUL4 low T47D cell line and the EC50 difference between CUL4^high and CUL4^low cells indicates the small molecule cause specific cell killing.
as §1, with “Cells were treated with DMSO, or from 0 to 20 μM compound respectively.” left out

Series [4] can be described thus: Dynamic light scattering (DLS) solubility assay. The note with it: normalized intensity ratio of 25 μM compound vs DMSO, in PBS. The class given is physicochemical. On the procedure: Dynamic light scattering (DLS) (see Table 1, column 3) is a tool for studying the diffusion behavior of macromolecules in solution. To profile compound solubility, DLS assay was developed for measuring aggregation of small molecule compounds. Compound stock solution was prepared in DMSO. Dilution series were made for each compound in DMSO to ensure a final 1× assay concentration range of 200 μM to 0.78 μM. For example, if the final DMSO concentration was 1%, compounds were prepared at 100× concentrations ranging from […] to 78 μM. Dilute compounds in PBS solution to final concentration. Place 60 μl/well in 96 well plates and 3 replicates for each sample. Data were collected using a DynaPro Plate Reader III (WYATT Technologies, Inc., USA). The instrument was adjusted to measure the optimal light scattering intensity according to the manufacturer's instructions. […] The ratio over 2 means (−) insoluble. The ratio below 2 means (+) soluble and around 2 means (+/−).

For series [5], the system named is UV-induced CUL4-dependent DDB2 degradation in MEF-F-DDB2 cells. As to the kind of experiment: Cell-based assay for inhibition of UV-induced CUL4-dependent DDB2 degradation. Details: key: (+) means that the normalized DDB2/α-tubulin ratio is higher in the compound treated sample than DMSO treated sample; (−) means that no change happens between compound treated sample with control sample. The conditions noted are these: DDB2/α-tubulin by Western blot. On the procedure:
Cell-based assay for inhibition of UV-induced CUL4-dependent DDB2 degradation by small molecule CUL4 inhibitors (see Table 1, column 5). Briefly, MEF-F-DDB2 cells were seeded in 6-well plates. DMSO or indicated concentrations of compounds were added to MEF-F-DDB2 cells growing in serum-free medium. MEF-F-DDB2 cells were washed once with PBS and subsequently irradiated with a Philips TUV lamp (predominantly 254 nm) at a dose rate of 0.2 W/m^2. DMSO or compounds were added to MEF-F-DDB2 cells, and then cells were harvested. The cells were lysed, and equal amounts of proteins were resolved on SDS-PAGE gel and Flag-DDB2 levels were detected using anti-DDB2 (D4C4) rabbit antibody (Cell signaling, #5416S). α-tubulin (Proteintech, #66031-1-Ig) was used as an internal loading control. (+) means that the normalized DDB2/α-tubulin ratio is higher in the compound treated sample than DMSO treated sample. (−) means that no change happens between compound treated sample with control sample.

As a reminder, the IC50 is the concentration that gives 50% inhibition. The EC50 is the concentration giving half of the maximal effect.

CUL4A-DDB1-BPB interaction, sequence (Q16531 403-706): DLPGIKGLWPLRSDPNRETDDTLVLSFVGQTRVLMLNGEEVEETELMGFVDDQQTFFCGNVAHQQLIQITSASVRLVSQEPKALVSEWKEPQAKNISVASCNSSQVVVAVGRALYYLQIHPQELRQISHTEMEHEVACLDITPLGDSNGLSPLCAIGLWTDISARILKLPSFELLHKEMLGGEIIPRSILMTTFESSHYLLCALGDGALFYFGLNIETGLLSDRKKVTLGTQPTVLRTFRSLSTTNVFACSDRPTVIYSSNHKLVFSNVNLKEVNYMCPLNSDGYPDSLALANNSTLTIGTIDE

With `CN(c1ccc(-c2nc(C(=O)O)cc3c2[nH]c2ccccc23)cc1)S(C)(=O)=O` [PA75, 1-[4-[methyl(methylsulfonyl)amino]phenyl]-9H-pyrido[3,4-b]indole-3-carboxylic acid], in series [1], the IC50 was found to be 1.39 ± 0.43 µM. The EC50 in series [2] was 38.7 µM; in series [3], 64 µM.

With `COC(=O)c1cc2c([nH]c3ccc(F)cc32)c(-c2ccc(N(C)S(=O)(=O)c3ccccc3)cc2)n1` [PA93-1], in series [4], the “Solubility (DLS Assay)” value is “-(insoluble)”. In addition, the “AlphaLisa IC50” value in series [1] is “Neg”. Moreover, the “Degradation Inhibition (inhibition of UV-induced DDB2 degradation)” value (“Degradation Inhibition” for short) in series [5] is recorded as “−”. In addition, the values for the 50% effective concentration (EC50) in series [2] and in series [3] were 21.8 µM and more than 100 µM, respectively.

Turning to `CN(c1ccc(-c2nc(C(=O)O)cc3c2[nH]c2ccc(F)c(F)c23)cc1)S(=O)(=O)c1ccccc1` [PA1-1, 1-[4-[benzenesulfonyl(methyl)amino]phenyl]-5,6-difluoro-9H-pyrido[3,4-b]indole-3-carboxylic acid], the “Solubility (DLS Assay)” value in series [4] was “-(insoluble)”. Moreover, the IC50 in series [1] came out at 0.17 µM. The “Degradation Inhibition” value in series [5] was “−”. Further, the EC50 is 15.2 µM in series [2] and more than 100 µM in series [3].

As for `Cc1ccc(S(=O)(=O)N(C)c2ccc(-c3nc(C(=O)O)cc4c3[nH]c3ccc(F)cc34)cc2)cc1` [PA2-1, 6-fluoro-1-[4-[methyl-(p-tolylsulfonyl)amino]phenyl]-9H-pyrido[3,4-b]indole-3-carboxylic acid], the “Solubility (DLS Assay)” value in series [4] is “-(insoluble)”. Further, the IC50 in series [1] came out at 0.3 µM. Further, the “Degradation Inhibition” value in series [5] is “−”. Also, the EC50 was 9.32 µM in series [2] and more than 100 µM in series [3].

Take `COC(=O)c1ccc(-c2nc(C(=O)O)cc3c2[nH]c2ccccc23)cc1` [PA20, 1-(4-methoxycarbonylphenyl)-9H-pyrido[3,4-b]indole-3-carboxylic acid]: the IC50 in series [1] came to 2.09 ± 1.26 µM. Besides, the “Degradation Inhibition” value in series [5] is “+”. The EC50 in series [2] was 91.3 µM; in series [3], more than 100 µM.

Regarding `CS(=O)(=O)Nc1ccc(-c2nc(C(=O)O)cc3c2[nH]c2ccccc23)cc1` [PA48, 1-[4-(methanesulfonamido)phenyl]-9H-pyrido[3,4-b]indole-3-carboxylic acid], in series [1], the IC50 amounted to 1.26 ± 0.45 µM. Further, in series [5], the “Degradation Inhibition” value was “+”. Moreover, the EC50 is 84.1 µM in series [2] and more than 100 µM in series [3].

As to `COC(=O)c1cc2c([nH]c3ccccc32)c(-c2ccc(S(C)(=O)=O)cc2)n1` [PA54], the “Solubility (DLS Assay)” value in series [4] is given as “-(insoluble)”. Besides, in series [1], the “AlphaLisa IC50” value is “Neg”. Further, in series [5], the “Degradation Inhibition” value is “+”. For the same molecule, the EC50 in series [2] and in series [3] was more than 100 µM in each case.

In the case of `CS(=O)(=O)NC(=O)c1cc2c([nH]c3ccccc32)c(-c2ccc(S(C)(=O)=O)cc2)n1` [PA55], in series [1], the IC50 worked out at 11.1 ± 2.71 µM. For the same molecule, the “Degradation Inhibition” value in series [5] was “−”. The EC50 in series [2] was found to be 30.7 µM; in series [3], 53.8 µM.

Regarding `CN(c1ccc(-c2nc(C(=O)O)cc3c2[nH]c2ccc(F)cc23)cc1)S(=O)(=O)c1ccc(Br)cc1` [PA2-4, 1-[4-[(4-bromophenyl)sulfonyl-methyl-amino]phenyl]-6-fluoro-9H-pyrido[3,4-b]indole-3-carboxylic acid], in series [1], the IC50 came out at 0.75 µM. In series [5], the “Degradation Inhibition” value is reported as “+”. Besides, the EC50 is 4.49 µM in series [2] and more than 100 µM in series [3].

In the case of `COC(=O)c1cc2c([nH]c3ccccc32)c(-c2ccc(S(=O)(=O)Cc3ccccc3)cc2)n1` [PA65, methyl 1-(4-benzylsulfonylphenyl)-9H-pyrido[3,4-b]indole-3-carboxylate], the “Solubility (DLS Assay)” value in series [4] was “-(insoluble)”. In addition, the “AlphaLisa IC50” value in series [1] is “Neg”. Moreover, the EC50 in series [2] amounted to 18.1 µM; in series [3], 44.3 µM.

Consider `CN(c1ccc(-c2nc(C(=O)O)cc3c2[nH]c2c(F)cccc23)cc1)S(=O)(=O)c1ccccc1` [PA1-4, 8-fluoro-1-(4-(N-methylphenylsulfonamido)phenyl)-9H-pyrido[3,4-b]indole-3-carboxylic acid], for which the IC50 in series [1] came to 8.88 µM. The “Degradation Inhibition” value in series [5] is recorded as “−”. The EC50 was determined as 6.9 µM in series [2] and 10.9 µM in series [3].

`CS(=O)(=O)Oc1ccc(-c2nc(C(=O)O)cc3c2[nH]c2ccccc23)cc1` [PA53, 1-(4-methylsulfonyloxyphenyl)-9H-pyrido[3,4-b]indole-3-carboxylic acid]: the IC50 in series [1] was 1.31 ± 0.24 µM. The values for the EC50 in series [2] and in series [3] were 27.5 µM and 69.5 µM, respectively.

Take `N#Cc1cc2c([nH]c3ccccc32)c(-c2ccc([N+](=O)[O-])cc2)n1` [PA42, 1-(4-nitrophenyl)-9H-pyrido[3,4-b]indole-3-carbonitrile]: the “AlphaLisa IC50” value in series [1] is listed as “Neg”. Further, the EC50 in series [2] is 73.1 µM; in series [3], more than 100 µM.

Regarding `O=[N+]([O-])c1ccc(-c2nc(-c3nn[nH]n3)cc3c2[nH]c2ccccc23)cc1` [PA40, 1-(4-nitrophenyl)-3-(1H-tetrazol-5-yl)-9H-pyrido[3,4-b]indole], in series [4], the “Solubility (DLS Assay)” value was “-(insoluble)”. Moreover, the IC50 in series [1] is 12.9 ± 7.44 µM. Further, the EC50 in series [2] is 23.5 µM; in series [3] it was 54.7 µM.

As to `O=C(O)c1cc2c([nH]c3ccccc32)c(-c2ccc(S(=O)(=O)Cc3ccccc3)cc2)n1` [PA67, 1-(4-benzylsulfonylphenyl)-9H-pyrido[3,4-b]indole-3-carboxylic acid], the IC50 in series [1] amounted to 1.22 ± 0.35 µM. Further, the EC50 in series [2] is 53.8 µM; in series [3] it was more than 100 µM.
